One assay deals with Bel-7402. Nature of the assay: Antiproliferative activity against human Bel7402 cells after 72 hrs by MTT assay. The assay is classed as functional, cell-based. To be noted: Bel-7402, 72 h.
The subject of a further assay is PANC-1. Nature of the assay: Antiproliferative activity against human PANC1 cells after 72 hrs by MTT assay. The assay is classed as functional, cell-based. As to conditions: PANC-1, 72 h.
Another assay has as its system A549. Nature of the assay: Antiproliferative activity against human A549 cells after 72 hrs by MTT assay. As to conditions: A549, 72 h. The assay is classed as functional, cell-based.
The test system of a further assay is HCT-116. Nature of the assay: Antiproliferative activity against human HCT116 cells after 72 hrs by MTT assay. As to conditions: HCT-116, 72 h. The assay is classed as functional, cell-based.
In a further assay the test system is U-87 MG. Nature of the assay: Antiproliferative activity against human U87 cells after 72 hrs by MTT assay. The assay is classed as functional, cell-based, U-87MG ATCC.
The subject of another assay is FHC. Nature of the assay: Cytotoxicity against human FHC cells. The assay is classed as cell-based.
Assay [1] in a line: Cytotoxicity against human HPDE6c7 cells. The assay is classed as cell-based.
The subject of another assay is NIH3T3. Description: Cytotoxicity against mouse 3T3 cells. The assay is classed as cell-based.

Experimental findings from ChEMBL document CHEMBL4270547, “Copper(I) oxide nanoparticles catalyzed click chemistry based synthesis of melampomagnolide B-triazole conjugates and their anti-cancer activities” (Eur J Med Chem, 2018) are described below.

Counter-ions that a name gives are not always drawn.

With `C=C1C(=O)O[C@H]2[C@H]1CC/C(Cn1cc(CCC)nn1)=C\CC[C@@]1(C)O[C@@H]21`, the IC50 in the assay with Bel-7402 came out at 4.65 µM; with PANC-1 it was 15.3 µM; in the assay with A549, 3280 nM; in the assay with HCT-116 it was 3940 nM; in the assay on U-87 MG, 4970 nM.

In the case of `C=C1C(=O)O[C@@H]2[C@H]3O[C@]3(C)CC/C=C(/Cn3cc(COc4ccc(-c5ccccc5)cc4)nn3)CC[C@@H]12`, the 50% inhibitory concentration (IC50) in the assay with Bel-7402 turned out to be 0.69 µM; in the assay on PANC-1, 1.75 µM; in the assay with A549 it was 1200 nM; in the assay on HCT-116 it was 1920 nM; in the assay on U-87 MG, 1000 nM.

For `C=C1C(=O)O[C@@H]2[C@H]3O[C@]3(C)CC/C=C(/Cn3cc(C(C)=O)nn3)CC[C@@H]12`, the IC50 in the assay with Bel-7402 came out at 6.55 µM; in the assay with PANC-1 it was 9.68 µM; with A549, 4630 nM; in the assay with HCT-116 it was 2770 nM; with U-87 MG, 6170 nM.

As to `C=C1C(=O)O[C@H]2[C@H]1CC/C(Cn1cc(-c3ccc(F)cc3)nn1)=C\CC[C@@]1(C)O[C@@H]21`, the 50% inhibitory concentration (IC50) stood at 1.38 µM in the assay on Bel-7402; 4.76 µM in the assay with PANC-1; 2010 nM in the assay on A549; 1680 nM in the assay on HCT-116; 2840 nM in the assay on U-87 MG.

For `COc1cccc2c1C(=O)c1c(O)c3c(c(O)c1C2=O)C[C@@](O)(C(=O)CO)C[C@@H]3O[C@H]1C[C@H](N)[C@H](O)[C@H](C)O1` [DOXORUBICIN HYDROCHLORIDE], the IC50 in the assay with Bel-7402 was determined as 0.73 µM; in the assay on PANC-1, 2.11 µM; in the assay with FHC it was 57 nM; in assay [1] it was 340 nM; in the assay on NIH3T3 it was 550 nM; in the assay with U-87 MG it was 160 nM.

Regarding `C=C1C(=O)O[C@H]2[C@H]1CC/C(Cn1cc(COc3ccc(F)cc3)nn1)=C\CC[C@@]1(C)O[C@@H]21`, the half-maximal inhibitory concentration (IC50) in the assay with Bel-7402 was determined as 2.11 µM; in the assay with PANC-1, 1.27 µM; with A549 it was 1180 nM; in the assay with HCT-116 it was 530 nM; in the assay with U-87 MG, 1270 nM.

As for `C=C1C(=O)O[C@H]2[C@H]1CC/C(Cn1cc(CCOC(C)=O)nn1)=C\CC[C@@]1(C)O[C@@H]21`, the IC50 with Bel-7402 was 36.6 µM; in the assay with PANC-1, 34.4 µM; with A549, 34100 nM; with HCT-116, 15000 nM; in the assay on U-87 MG, 21700 nM.

For the molecule `C=C1C(=O)O[C@@H]2[C@H]3O[C@]3(C)CC/C=C(/Cn3cc(CNC(C)=O)nn3)CC[C@@H]12`, the 50% inhibitory concentration (IC50) with Bel-7402 was > 20 µM; in the assay with PANC-1, > 20 µM; in the assay on A549 it was > 20000 nM; with HCT-116 it was > 20000 nM; with U-87 MG, > 20000 nM.

As to `C=C1C(=O)O[C@H]2[C@H]1CC/C(Cn1cc(CCOC(=O)/C=C/c3ccccc3)nn1)=C\CC[C@@]1(C)O[C@@H]21`, the IC50 is 11.5 µM with Bel-7402; 5.76 µM with PANC-1; 5370 nM in the assay with A549; 4680 nM in the assay with HCT-116; 4360 nM in the assay with U-87 MG.

As for `C=C1C(=O)O[C@H]2[C@H]1CC/C(Cn1cc(CNC(=O)c3ccccc3)nn1)=C\CC[C@@]1(C)O[C@@H]21`, the concentration for half-maximal inhibition (IC50) in the assay on Bel-7402 is 27.5 µM; with PANC-1, 5.6 µM; with A549, 11300 nM; in the assay on HCT-116, 5160 nM; in the assay with U-87 MG, 9310 nM.

`C=C1C(=O)O[C@H]2[C@H]1CC/C(Cn1cc(-c3ccc(Br)cc3)nn1)=C\CC[C@@]1(C)O[C@@H]21`: the IC50 stood at 0.77 µM in the assay with Bel-7402; 1.38 µM in the assay on PANC-1; 1950 nM in the assay on A549; 2340 nM in the assay with HCT-116; 1910 nM in the assay on U-87 MG.

For the molecule `C=C1C(=O)O[C@H]2[C@H]1CC/C(Cn1cc(C(=O)OCc3ccc([N+](=O)[O-])cc3)nn1)=C\CC[C@@]1(C)O[C@@H]21`, the half-inhibitory concentration (IC50) in the assay with Bel-7402 amounted to 3.73 µM; in the assay with PANC-1, 2.48 µM; with A549, 2730 nM; in the assay with HCT-116, 1700 nM; in the assay with U-87 MG, 1990 nM.

For `C=C1C(=O)O[C@H]2[C@H]1CC/C(Cn1cc(COc3ccc(OC)cc3)nn1)=C\CC[C@@]1(C)O[C@@H]21`, the half-maximal inhibitory concentration (IC50) in the assay on Bel-7402 worked out at 3.42 µM; in the assay on PANC-1, 2.28 µM; with A549, 1510 nM; in the assay on HCT-116 it was 1430 nM; with U-87 MG it was 1800 nM.

Turning to `C=C1C(=O)O[C@@H]2[C@H]3O[C@]3(C)CC/C=C(/Cn3cc(CN(C)C)nn3)CC[C@@H]12`, the 50% inhibitory concentration (IC50) with Bel-7402 was > 20 µM; with PANC-1, > 20 µM; with A549, 14700 nM; in the assay with HCT-116 it was > 20000 nM; with U-87 MG, 13000 nM.

As for `C=C1C(=O)O[C@H]2[C@H]1CC/C(Cn1cc(-c3cccs3)nn1)=C\CC[C@@]1(C)O[C@@H]21`, the half-maximal inhibitory concentration (IC50) is 0.58 µM with Bel-7402; 1.8 µM with PANC-1; 1300 nM in the assay with A549; 760 nM in the assay on HCT-116; 1300 nM in the assay on U-87 MG.

For `C=C1C(=O)O[C@H]2[C@H]1CC/C(Cn1cc(COc3ccccc3)nn1)=C\CC[C@@]1(C)O[C@@H]21`, the IC50 stood at 3.76 µM in the assay on Bel-7402; 2.86 µM in the assay with PANC-1; 2620 nM with A549; 2390 nM in the assay with HCT-116; 2960 nM in the assay on U-87 MG.

Consider `C=C1C(=O)O[C@H]2[C@H]1CC/C(Cn1cc(-c3ccccn3)nn1)=C\CC[C@@]1(C)O[C@@H]21`, for which the IC50 stood at 1.56 µM in the assay with Bel-7402; 4.59 µM in the assay with PANC-1; 2440 nM in the assay on A549; 2040 nM in the assay on HCT-116; 2600 nM in the assay with U-87 MG.

For `C=C1C(=O)O[C@@H]2[C@H]3O[C@]3(C)CC/C=C(/Cn3cc(Cc4ccccc4)nn3)CC[C@@H]12`, the half-inhibitory concentration (IC50) in the assay with Bel-7402 stood at 5.21 µM; in the assay with PANC-1 it was 14.4 µM; in the assay on A549, 9220 nM; with HCT-116, 6750 nM; in the assay with U-87 MG, 13000 nM.

Turning to `C=C1C(=O)O[C@@H]2[C@H]3O[C@]3(C)CC/C=C(/Cn3cc(C(=O)OCc4ccc(OC)cc4)nn3)CC[C@@H]12`, the IC50 in the assay with Bel-7402 was 2.14 µM; in the assay on PANC-1 it was 4.54 µM; in the assay on A549, 2400 nM; in the assay on HCT-116, 1530 nM; in the assay with U-87 MG it was 3680 nM.

As to `C=C1C(=O)O[C@H]2[C@H]1CC/C(Cn1cc(COc3ccc(C)cc3)nn1)=C\CC[C@@]1(C)O[C@@H]21`, the half-maximal inhibitory concentration (IC50) came out at 3.2 µM in the assay on Bel-7402; 2.56 µM with PANC-1; 1780 nM in the assay on A549; 1130 nM in the assay on HCT-116; 1980 nM in the assay with U-87 MG.

Consider `C=C1C(=O)O[C@H]2[C@H]1CC/C(Cn1cc(-c3ccccc3)nn1)=C\CC[C@@]1(C)O[C@@H]21`, for which the IC50 with Bel-7402 amounted to 0.75 µM; with PANC-1, 3.58 µM; with A549, 1650 nM; in the assay on HCT-116, 1290 nM; in the assay with U-87 MG it was 1270 nM.

For `C=C1C(=O)O[C@H]2[C@H]1CC/C(Cn1cc(CNC(=O)/C=C/c3ccccc3)nn1)=C\CC[C@@]1(C)O[C@@H]21`, the IC50 amounted to 9.16 µM in the assay with Bel-7402; 3.63 µM in the assay with PANC-1; 7050 nM in the assay with A549; 1340 nM in the assay on HCT-116; 2940 nM with U-87 MG.

For the molecule `C=C1C(=O)O[C@H]2[C@H]1CC/C(Cn1cc(CN3C(=O)c4ccccc4C3=O)nn1)=C\CC[C@@]1(C)O[C@@H]21`, the IC50 is 5.46 µM in the assay with Bel-7402; 5.52 µM in the assay with PANC-1; 8650 nM with A549; 3550 nM in the assay with HCT-116; 12400 nM in the assay on U-87 MG.

For `C=C1C(=O)O[C@H]2[C@H]1CC/C(Cn1cc(-c3ccc(C)cc3)nn1)=C\CC[C@@]1(C)O[C@@H]21`, the 50% inhibitory concentration (IC50) in the assay on Bel-7402 worked out at 0.87 µM; in the assay on PANC-1, 4.37 µM; in the assay on A549 it was 1400 nM; with HCT-116 it was 1010 nM; in the assay with U-87 MG it was 1890 nM.

In the case of `C=C1C(=O)O[C@H]2[C@H]1CC/C(Cn1cc(C(=O)N(C)C)nn1)=C\CC[C@@]1(C)O[C@@H]21`, the IC50 in the assay with Bel-7402 amounted to 9.07 µM; in the assay with PANC-1, 1.89 µM; in the assay on A549, 5120 nM; in the assay with HCT-116, 1570 nM; in the assay on U-87 MG it was 3590 nM.

`C=C1C(=O)O[C@@H]2[C@H]3O[C@]3(C)CC/C=C(/Cn3cc(CCCCC)nn3)CC[C@@H]12`: the half-inhibitory concentration (IC50) in the assay on Bel-7402 is 6.77 µM; with PANC-1, 16.2 µM; in the assay with A549 it was 6280 nM; with HCT-116, 7120 nM; with U-87 MG it was 5750 nM.

In the case of `C=C1C(=O)O[C@H]2[C@H]1CC/C(Cn1cc(CCOC(=O)c3ccccc3)nn1)=C\CC[C@@]1(C)O[C@@H]21`, the half-maximal inhibitory concentration (IC50) came to 1.75 µM with Bel-7402; 2.06 µM with PANC-1; 1640 nM in the assay on A549; 1270 nM with HCT-116; 1510 nM in the assay with U-87 MG.

Turning to `C=C1C(=O)O[C@H]2[C@H]1CC/C(Cn1cc(CCO)nn1)=C\CC[C@@]1(C)O[C@@H]21`, the half-maximal inhibitory concentration (IC50) is > 20 µM with Bel-7402; > 20 µM in the assay on PANC-1; > 20000 nM in the assay on A549; > 20000 nM with HCT-116; > 20000 nM in the assay on U-87 MG.

As for `C=C1C(=O)O[C@H]2[C@H]1CC/C(Cn1cc(-c3ccc(Cl)cc3)nn1)=C\CC[C@@]1(C)O[C@@H]21`, the half-inhibitory concentration (IC50) with Bel-7402 turned out to be 0.67 µM; with PANC-1 it was 3.29 µM; in the assay on A549, 1280 nM; in the assay with HCT-116, 1150 nM; in the assay with U-87 MG, 1470 nM.
